From the supplement of paper PMC11061612

How the values were obtained:
Assay in all cases: Bliss excess, mean over the matrix (fraction); higher = more synergy
[1] = system: RS4-11 (B-Lymphoblastic Leukemia)
Procedure, shortened: (§1)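 After 24 hours at 37°C and 5% CO2 in 1536-well plates, cells in DMEM/F12 or RPMI plus 10% FBS received two-drug dose matrices for 72 hours. Viability came from CellTiter-Glo 2.0 luminescence and was scaled as inhibition, anchored at 0 by vehicle wells and at 1 by blank wells. Combination Emax is taken as the second-highest inhibition in the matrix, and Bliss excess as the observed combination effect less EA + EB − EA·EB, with EA and EB the single-agent effects.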

DK-MG (Glioblastoma) = system: DK-MG (Glioblastoma)
Procedure, shortened: as §1

[2] = system: MRK-nu-1 (Breast Carcinoma)
Procedure, shortened: as §1

[3] = system: SNU-1 (Gastric Carcinoma)
Procedure, shortened: as §1

[4] = system: NCI-H2023 (Non-Small Cell Lung Carcinoma)
Procedure, shortened: as §1

[5] = system: MDA-MB-175-VII (Breast Carcinoma)
Procedure, shortened: as §1

[6] = system: HT-3 (Cervical Carcinoma)
Procedure, shortened: as §1

[7] = system: NCI-H1648 (Lung Adenocarcinoma)
Procedure, shortened: as §1

[8] = system: NCI-H2170 (Squamous Cell Lung Carcinoma)
Procedure, shortened: as §1

[9] = system: NCI-H1975 (Lung Adenocarcinoma)
Procedure, shortened: as §1

[10] = system: BC-1 (B-Cell Non-Hodgkin's Lymphoma)
Procedure, shortened: as §1

[11] = system: SUP-HD1 (Hodgkin's Lymphoma)
Procedure, shortened: as §1

SK-MEL-24 (Melanoma) = system: SK-MEL-24 (Melanoma)
Procedure, shortened: as §1

HT-144 (Melanoma) = system: HT-144 (Melanoma)
Procedure, shortened: as §1

GCIY (Gastric Carcinoma) = system: GCIY (Gastric Carcinoma)
Procedure, shortened: as §1

[12] = system: KNS-62 (Squamous Cell Lung Carcinoma)
Procedure, shortened: as §1

[13] = system: SBC-5 (Small Cell Lung Carcinoma)
Procedure, shortened: as §1

[14] = system: TOV-21G (Ovarian Carcinoma)
Procedure, shortened: as §1

[15] = system: HT-1197 (Bladder Carcinoma)
Procedure, shortened: as §1

[16] = system: OVKATE (Ovarian Carcinoma)
Procedure, shortened: as §1

| Compound | Bliss excess [1] | Bliss excess (DK-MG (Glioblastoma)) | Bliss excess [2] | Bliss excess [3] | Bliss excess [4] | Bliss excess [5] | Bliss excess [6] | Bliss excess [7] | Bliss excess [8] | Bliss excess [9] | Bliss excess [10] | Bliss excess [11] | Bliss excess (SK-MEL-24 (Melanoma)) | Bliss excess (HT-144 (Melanoma)) | Bliss excess (GCIY (Gastric Carcinoma)) | Bliss excess [12] | Bliss excess [13] | Bliss excess [14] | Bliss excess [15] | Bliss excess [16] |
| --- | --- | --- | --- | --- | --- | --- | --- | --- | --- | --- | --- | --- | --- | --- | --- | --- | --- | --- | --- | --- |
| CN(CCO)CC[C@H](CSc1ccccc1)Nc1ccc(S(=O)(=O)NC(=O)c2ccc(N3CCC([C@@H](O)c4ccccc4-c4ccc(Cl)cc4)CC3)cc2)cc1S(=O)(=O)C(F)(F)F [AZD4320] + Cn1cnc2c(F)c(Nc3ccc(Br)cc3Cl)c(C(=O)NOCCO)cc21 [Selumetinib] (first compound max 1 µM, 7x7, partner max 3 µM) | -0.0125 | 0.0286 | -0.0013 | 0.0212 | 0.0178 | 0.0188 | 0.0308 | 0.0177 | -0.0497 | 0.0125 | 0.0573 | 0.0036 | -0.0168 | 0.15 | 0.0199 | 0.03 | 0.0547 | 0.0593 | 0.0079 | -0.0247 |
| CC1(C)CCC(CN2CCN(c3ccc(C(=O)NS(=O)(=O)c4ccc(NCC5CCOCC5)c([N+](=O)[O-])c4)c(Oc4cnc5[nH]ccc5c4)c3)CC2)=C(c2ccc(Cl)cc2)C1 [Venetoclax] + Cc1cc2ncnn2cc1Nc1ncc2c(n1)n(C1CCOCC1)c(=O)n2C [AZD7648] (first compound max 1 µM, 7x7, partner max 10 µM) | -0.0149 | -0.0355 | 0.0037 | -0.0408 | -0.0513 | -0.0444 | -0.016 | -0.0431 | -0.0109 | -0.0114 | 0.017 | -0.0659 | -0.0553 | -0.0798 | -0.0232 | -0.0255 | 0.0086 | -0.002 | -0.0208 | -0.113 |
| CC(=O)c1c(C)c2cnc(Nc3ccc(N4CCNCC4)cn3)nc2n(C2CCCC2)c1=O [Palbociclib] + Cn1cnc2c(F)c(Nc3ccc(Br)cc3Cl)c(C(=O)NOCCO)cc21 [Selumetinib] (first compound max 10 µM, 7x7, partner max 10 µM) | -0.0881 | -0.0133 | 0.0259 | 0.067 | -0.0313 | -0.0013 | -0.0279 | 0.0823 | -0.0284 | -0.0041 | 0.0124 | -0.0414 | -0.031 | -0.0029 | 0.0351 | 0.038 | 0.0396 | -0.0259 | -0.0257 | -0.0378 |
| COc1cccc2c1C(=O)c1c(O)c3c(c(O)c1C2=O)C[C@@](O)(C(=O)CO)C[C@@H]3O[C@H]1C[C@H](N)[C@H](O)[C@H](C)O1 [Doxorubicin] + Cc1cc2ncnn2cc1Nc1ncc2c(n1)n(C1CCOCC1)c(=O)n2C [AZD7648] (first compound max 1 µM, 7x7, partner max 10 µM) | 0.171 | 0.0299 | 0.0157 | 0.0667 | 0.0476 | -0.0228 | 0.127 | 0.0456 | 0.0706 | 0.0542 | 0.094 | 0.0727 | 0.0399 | 0.0302 | 0.0606 | -0.0075 | 0.0341 | 0.0091 | 0.0022 | -0.0594 |
| Cn1cnc2c(F)c(Nc3ccc(Br)cc3Cl)c(C(=O)NOCCO)cc21 [Selumetinib] + C=CCn1c(=O)c2cnc(Nc3ccc(N4CCN(C)CC4)cc3)nc2n1-c1cccc(C(C)(C)O)n1 [AZD1775] (first compound max 10 µM, partner max 1 µM) | -0.0443 | -0.0548 | -0.0289 | -0.005 | -0.0578 | -0.0005 | -0.0009 | -0.0704 | -0.0838 | -0.0318 | 0.0569 | -0.0188 | -0.0315 | -0.0127 | 0.0057 | -0.0251 | -0.022 | -0.0891 | 0.0032 | -0.0524 |
| COc1nnc2ccc(N3CCC(c4ccc(OCCN5CCN(C)C(=O)[C@H]5C)cc4)CC3)nn12 [AZD5153] + CC1(C)CCC(CN2CCN(c3ccc(C(=O)NS(=O)(=O)c4ccc(NCC5CCOCC5)c([N+](=O)[O-])c4)c(Oc4cnc5[nH]ccc5c4)c3)CC2)=C(c2ccc(Cl)cc2)C1 [Venetoclax] (first compound max 1 µM, 7x7, partner max 1 µM) | -0.0179 | -0.0766 | -0.0537 | -0.0523 | -0.0832 | 0.0346 | -0.0644 | -0.062 | -0.0329 | -0.0579 | -0.0604 | -0.0316 | -0.0685 | -0.0488 | -0.0592 | -0.0381 | -0.0579 | -0.0264 | -0.0708 | -0.0037 |
| CC(=O)c1c(C)c2cnc(Nc3ccc(N4CCNCC4)cn3)nc2n(C2CCCC2)c1=O [Palbociclib] + CC1(C)CCC(CN2CCN(c3ccc(C(=O)NS(=O)(=O)c4ccc(NCC5CCOCC5)c([N+](=O)[O-])c4)c(Oc4cnc5[nH]ccc5c4)c3)CC2)=C(c2ccc(Cl)cc2)C1 [Venetoclax] (first compound max 10 µM, 7x7, partner max 1 µM) | 0.0385 | 0.0131 | -0.0262 | 0.0006 | -0.0067 | -0.0174 | -0.0529 | -0.0254 | 0.0227 | -0.0254 | -0.0747 | -0.0641 | -0.0586 | -0.0356 | -0.0391 | -0.0152 | 0.0178 | -0.025 | -0.042 | -0.0484 |
